# Measured values from patent publication US4279822A, “N-(1-Substituted-3-pyrrolidinyl)benzamides” (A. H. Robins Company, Inc., priority 1976, dated 1981).
# System: apomorphine-induced emesis in dogs
# Test: Reduction of apomorphine-induced emesis in dogs (anti-emetic effect)
# Format: in vivo
# Settings: Canis lupus familiaris, sc, 40 min, read-out: ED50, Anti-Emetic Effect of Subcutaneous Administration
# Experimental: The anti-emetic properties of the compounds of Formula I were established using a modification of the methods of Chen and Ensor, J. Pharmac. Exp. Ther. 98: 245-250 (1950) and of Leonard et al., J. Pharmac. Exp. Ther. 154: 339-345 (1966). Drug activity was assessed by its ability to reduce the frequency of apomorphine-induced emesis in dogs. The dogs were prescreened for fairly constant emetic responses to the subcutaneous administration of 0.1 mg/kg. of apomorphine hydrochloride, and those which vomited five or more times in the 40-minute period after apomorphine administration were selected for drug studies.
# Groups of three dogs were used in preliminary tests and for the determinations of time of peak drug effect. Dose response curves were usually obtained using four drug-treated groups; each group contained at least three dogs. The dogs were fed approximately 17 hours prior to a test. Drugs were administered and at suitable intervals the dogs received 0.1 mg/kg of apomorphine hydrochloride subcutaneously. Frequency of emesis was determined during the next 40 minutes and emesis was counted as the actual expulsion of stomach contents.
# In oral studies, drugs were administered in gelatin capsules (controls received an empty capsule). In the subcutaneous studies, drugs were administered in distilled water and/or polyethylene glycol-300.
# Dogs were re-used at intervals of not less than one week. The ED50 is the dose which reduces the frequency of emesis of drug treated dogs to a value 50% below that of controls. Mean frequency of emesis for each drug treated group was compared with a mean control value derived by pooling the prior control emetic frequencies for all dogs used on that test day. The difference is expressed as a percentage decrease relative to controls. The percent decrease in mean frequency of emesis for each drug-treated group (ordinate) was plotted against log dose (abscissa) on semi-log graph sheets. The ED50 was calculated by the method of Goldstein (Biostatistics, An Introductory Test; Pages 156-161; The MacMillan Co., New York, 1964).
row,SMILES,ED50 [mg/kg]
1,"CC(=O)Nc1ccc(C(=O)NC2CCN(C3CCCCC3)C2)cc1 (stereo not drawn) [Example 4, N-(1-Cyclohexyl-3-pyrrolidinyl)-4-acetamidobenzamide]",2.4
2,O=C(NC1CCN(C2CCCCC2)C1)c1ccc(Cl)cc1Cl (stereo not drawn) [Example 14],2.4
3,"O=C(NC1CCN(C2CCCCC2)C1)c1cc([N+](=O)[O-])cc([N+](=O)[O-])c1 (stereo not drawn) [Example 6, N-(1-Cyclohexyl-3-pyrrolidinyl)-3,5-dinitrobenzamide]",0.15

# Same assay, conditions: Canis lupus familiaris, sc, 40 min; dogs, s.c.; doses expressed as free base; apomorphine hydrochloride 0.1 mg/kg s.c.; 50% reduction of emesis frequency vs controls, 40 min; read-out: ED50, Anti-Emetic Effect of Subcutaneous Administration
row,SMILES,ED50 [mg/kg]
1,"CNc1ccc(C(=O)N(C)C2CCN(C3CCCCC3)C2)cc1.Cl.Cl (stereo not drawn) [Example 5, 4-Methylamino-N-(1-cyclohexyl-3-pyrrolidinyl)-N-methylbenzamide Dihydrochloride]",0.05

# Same assay, conditions: dogs, 5 mg/kg s.c.; percent reduction in emesis over that of controls; apomorphine hydrochloride 0.1 mg/kg s.c.
row,SMILES,% Reduction in Emesis [%]
1,CS(=O)(=O)Nc1ccc(C(=O)NC2CCN(C3CCCCC3)C2)cc1 (stereo not drawn) [Example 34],-86
2,CC(=O)Nc1ccc(C(=O)NC2CCN(Cc3ccccc3)C2)cc1 (stereo not drawn) [Example 36],-59
3,"CS(=O)(=O)N(c1ccc(C(=O)NC2CCN(C3CCCCC3)C2)cc1)S(C)(=O)=O (stereo not drawn) [Example 8, N-(1-Cyclohexyl-3-pyrrolidinyl)-4-[bis(methylsulfonyl)amino]benzamide]",-44
4,CC(=O)Nc1cccc(C(=O)NC2CCN(C3CCCCC3)C2)c1 (stereo not drawn) [Example 33],-87
5,CC(=O)Nc1ccccc1C(=O)NC1CCN(C2CCCCC2)C1 (stereo not drawn) [Example 35],-95
